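Method: 48-hour compound exposure of cells in 96-well plates, five concentrations, linear interpolation of endpoints. GI50: concentration for 50% inhibition of growth. TGI: total growth inhibition.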
Columns and labels:
Experiment in all cases: inhibition of tumour cell growth, NCI panel, 48 h
[1] = tested on: 786-0 renal
[2] = tested on: A549 NSCLC
[3] = tested on: ACHN renal
[4] = tested on: BT-549 breast
[5] = tested on: CAKI-1 renal
[6] = tested on: CCRF-CEM leukemia
[7] = tested on: COLO 205 colon
[8] = tested on: DU-145 prostate
[9] = tested on: EKVX NSCLC
[10] = tested on: HCC-2998 colon
[11] = tested on: HCT-116 colon
[12] = tested on: HCT-15 colon
[13] = tested on: HL-60(TB) leukemia
[14] = tested on: HOP-62 NSCLC
[15] = tested on: HOP-92 NSCLC
[16] = tested on: HS 578T breast
[17] = tested on: HT29 colon
[18] = tested on: IGROV1 ovarian
[19] = tested on: K-562 leukemia
[20] = tested on: KM12 colon
[21] = tested on: LOX IMVI melanoma
[22] = tested on: M14 melanoma
[23] = tested on: MALME-3M melanoma
[24] = tested on: MCF7 breast
[25] = tested on: MDA-MB-231 breast
[26] = tested on: MDA-MB-435
[27] = tested on: MOLT-4 leukemia
[28] = tested on: NCI-H226 lung
[29] = tested on: NCI-H23 lung
[30] = tested on: NCI-H460 lung
[31] = tested on: NCI-H522 lung
[32] = tested on: NCI/ADR-RES ovarian
[33] = tested on: OVCAR-3 ovarian
[34] = tested on: OVCAR-4 ovarian
[35] = tested on: OVCAR-5 ovarian
[36] = tested on: OVCAR-8 ovarian
[37] = tested on: PC-3 prostate
[38] = tested on: RPMI-8226 leukemia
[39] = tested on: SF-268 CNS
[40] = tested on: SF-295 CNS
[41] = tested on: SF-539 CNS
[42] = tested on: SK-MEL-2 melanoma
[43] = tested on: SK-MEL-28 melanoma
[44] = tested on: SK-MEL-5 melanoma
[45] = tested on: SK-OV-3 ovarian
[46] = tested on: SN12C renal
[47] = tested on: SNB-19 CNS
[48] = tested on: SNB-75 CNS
[49] = tested on: SR leukemia
[50] = tested on: SW-620 colon
[51] = tested on: T-47D breast
[52] = tested on: TK-10 renal
[53] = tested on: U251 CNS
[54] = tested on: UACC-62 melanoma
[55] = tested on: UO-31 renal

With `Cc1cc2nc(NCCN)n(Cc3ccc(F)c(Cl)c3)c2cc1C` the GI50 [1] was 10.2 µM, the TGI [1] was 23.3 µM and the GI50 [2] was 17.8 µM. For the same molecule, the TGI [2] was 32.2 µM, the GI50 [3] was 11.2 µM and the TGI [3] was 24.7 µM. For the same molecule, the GI50 [4] was 14.8 µM, the TGI [4] was 30.2 µM and the GI50 [5] was 12.7 µM. The TGI [5] was 25.4 µM, the GI50 [6] was 12.7 µM and the TGI [6] was 29.3 µM. It also gave a GI50 [7] of 1680 nM, a TGI [7] of 3.38 µM and a GI50 [8] of 14.1 µM. For the same molecule, the TGI [8] was 27.4 µM, the GI50 [9] was 13.8 µM and the TGI [9] was 28.4 µM. It also gave a GI50 [10] of 1820 nM, a TGI [10] of 3.65 µM and a GI50 [11] of 2290 nM. For the same molecule, the TGI [11] was 4.7 µM, the GI50 [12] was 5.74 µM and the TGI [12] was 19.1 µM. The GI50 [13] was 2830 nM, the TGI [13] was 11.7 µM and the GI50 [14] was 14.2 µM. It also gave a TGI [14] of 28.5 µM, a GI50 [15] of 2350 nM and a TGI [15] of 14.3 µM. It also gave a GI50 [16] of 11.8 µM, a TGI [16] of 28.2 µM and a GI50 [17] of 11.7 µM. For the same molecule, the TGI [17] was 24.5 µM, the GI50 [18] was 11.7 µM and the TGI [18] was 27.5 µM. It also gave a GI50 [19] of 2570 nM, a TGI [19] of 6.97 µM and a GI50 [20] of 5.28 µM. The TGI [20] was 18.6 µM, the GI50 [21] was 3.73 µM and the TGI [21] was 14.5 µM. The GI50 [22] was 2520 nM, the TGI [22] was 7.07 µM and the GI50 [23] was 1830 nM. For the same molecule, the TGI [23] was 4.19 µM, the GI50 [24] was 11.7 µM and the TGI [24] was 27.1 µM. It also gave a GI50 [25] of 2680 nM, a TGI [25] of 9.44 µM and a GI50 [26] of 3.68 µM. For the same molecule, the TGI [26] was 14 µM, the GI50 [27] was 6.42 µM and the TGI [27] was 22.1 µM. The GI50 [28] was 19.8 µM, the TGI [28] was 39.7 µM and the GI50 [29] was 14.5 µM. It also gave a TGI [29] of 29.2 µM, a GI50 [30] of 3.2 µM and a TGI [30] of 10.4 µM. For the same molecule, the GI50 [31] was 19.5 µM, the TGI [31] was 35.1 µM and the GI50 [32] was 16.3 µM. For the same molecule, the TGI [32] was 32.1 µM, the GI50 [33] was 12.8 µM and the TGI [33] was 27 µM. It also gave a GI50 [34] of 14 µM, a TGI [34] of 28.3 µM and a GI50 [35] of 13.7 µM. The TGI [35] was 28.3 µM, the GI50 [36] was 17 µM and the TGI [36] was 33.1 µM. It also gave a GI50 [37] of 10 µM, a TGI [37] of 22.4 µM and a GI50 [38] of 3.95 µM. The TGI [38] was 15.1 µM, the GI50 [39] was 11.6 µM and the TGI [39] was 26 µM. For the same molecule, the GI50 [40] was 12.8 µM, the TGI [40] was 26.1 µM and the GI50 [41] was 11.7 µM. The TGI [41] was 26 µM, the GI50 [42] was 19.1 µM and the TGI [42] was 34 µM. The GI50 [43] was 2470 nM, the TGI [43] was 6.63 µM and the GI50 [44] was 14.4 µM. For the same molecule, the TGI [44] was 27.6 µM, the GI50 [45] was 16.9 µM and the TGI [45] was 30.8 µM. For the same molecule, the GI50 [46] was 15.1 µM, the TGI [46] was 29.8 µM and the GI50 [47] was 13.6 µM. For the same molecule, the TGI [47] was 28.6 µM, the GI50 [48] was 10.6 µM and the TGI [48] was 23.4 µM. It also gave a GI50 [49] of 2030 nM, a TGI [49] of 6.04 µM and a GI50 [50] of 3.31 µM. The TGI [50] was 10.8 µM, the GI50 [51] was 6.16 µM and the TGI [51] was 21.7 µM. The GI50 [52] was 16.9 µM, the TGI [52] was 31.2 µM and the GI50 [53] was 12.3 µM. For the same molecule, the TGI [53] was 25.1 µM, the GI50 [54] was 13.3 µM and the TGI [54] was 27.2 µM. For the same molecule, the GI50 [55] was 10.7 µM and the TGI [55] was 24 µM.

— PubChem BioAssay (NCI)
